From patent US6809107B1, “Neurotrophic pyrrolidines and piperidines, and related compositions and methods” (Ortho-McNeil Pharmaceutical, Inc., priority 1999, dated 2004) come the findings set out here.

The structures appear in SMILES notation.

The subject of series [1] is Long-Evans rats, compressed facial nerve. In words: Rat facial nerve compression model. Type of series: in vivo. Conditions: p.o. about 20 mg/kg twice a day for 15 days after surgery; compared to vehicle and internal control; FIG. 1. The method, then:
In this model, compressing the facial nerve causes paralysis of the whisker muscle on that side of the face. The untreated facial nerve on the other side functions as an internal control. […] The whisker movement recovery rate on the paralyzed side compared to the vehicle and internal control is shown in this FIGURE.
Long-Evans rats are anesthetized under ketamine (60 mg/kg)/xylazine (6mg/kg). The facial nerve is exposed and mechanically compressed with forceps near the stylomastoid foramen unilaterally with the opposite, non-lesioned side serving as an internal control. […] Rats received test compound p.o. at about 20 mg/kg twice a day for 15 days after the surgery. Control rats received vehicle only. Three to eight rats are tested in each group. Restoration of whisker movement after the treatment with compounds of the present invention is recorded at different post-operative time points daily, up to two weeks, and is shown in FIG. 1.

Series [2] deals with T1, α-4,β-2 nicotinic acetycholine receptor (α4β2nAChR) (Rattus norvegicus, UniProt P09483+P12390).
T1 construct: crude synaptic membrane preparations from rat cerebral cortex, striatum and hippocampus; from tissue; host or cells: rat cerebral cortex, striatum and hippocampus (crude synaptic membranes, P2 fraction)
In words: Nicotinic acetylcholine receptor binding assay (3H-cytisine). The method, then: Binding of ^3H-cytisine to neuronal nicotinic acetylcholine receptors is accomplished using crude synaptic membrane preparations from rat cerebral cortex, striatum and hippocampus. Either fresh or frozen membranes are homogenized in 50 volumes of 10 mM HEPES (N-2-hydroxyethylpiperazine-N′-2-ethanesulfonic acid, pH 7.4) and centrifuged at 42,000 g. The P2 fraction is resuspended in 40 volumes of 10 mM HEPES and centrifuged at 42,000 g. This step is repeated and the P2fraction was resuspended in 25 volumes (e.g., 1 g of tissue into 25 mL) of a medium comprised of Na^+-HEPES buffer (10 mM, pH 7.4), 5 mM MgCl2, 0.01% powdered bovine serum albumin (BSA) and 100 mM NaCl. […] The binding reaction is terminated by filtration using a Brandel Cell Harvester; the amount of bound ^3H-cytisine for each sample is quantitated using a Wallac LKB 1205 Betaplate liquid scintillation counter. […] Nonspecific binding is determined using 10 μM (+)-epibatidine to block all binding of ^3H-cytisine to the α-4,β-2 nicotinic acetycholine receptor (α4β2nAChR). The activity of each test compound is calculated as follows: after correcting for nonspecific binding, the percent inhibition of specific binding (total binding minus nonspecific) is calculated. […] The IC50 values are calculated by performing a nonlinear regression analysis of the data using a standard regression program.

The subject of series [3] is Dorsal Root Ganglion (DRG). In words: Dorsal Root Ganglion (DRG) culture, neurite outgrowth. Set-up: key: + = Positive results for each experiment; − = Negative results for each experiment. Conditions: neurite outgrowth from DRG, test compound 50-250 nM, days 1-5; positive if neurites of ≧1 diameter of the DRG; one symbol per experiment. Type of series: cell-based, rat. The procedure:
Dorsal Root Ganglion (DRG) Culture
DRG are dissected from newborn or 1-day-old CD rats and placed into PBS on ice. After rinsing twice with sterile plating medium, DRG are transferred to empty wells of a 6-well plate coated with polyomithine/laminin (Becton Dickinson Labware) using #7 curved forceps. Three ml/well of plating medium are then added very gently, so as not to disturb the DRG. Plating medium is Leibovitz's L-15 medium (Gibco), plus 0.6% glucose, 33 mM KCl, 10% FCS, 10 mM Hepes and penicillin/streptomycin/glutamine. After overnight incubation at about 37° C. in 5% CO2, this medium is replaced with 3 mL/well of assay medium [Leibovitz's L-15 medium plus 0.6% glucose, 1% FCS, 1% N-2 supplement (Gibco), 10 μM ara-C, 10 mM Hepes, and penicillin/streptomycin/glutamine] containing either vehicle (DMSO, 1/200,000), positive control (2-4 ng/mL NGF) or test compound (50-250 nM). All media are prepared fresh daily. DRG are microscopically examined for neurite outgrowth on days 1-5.

For series [4], the system named is Human M17 Neuroblastoma Cells. In words: Neurite outgrowth assay in human M17 neuroblastoma cells. Conditions: MAP-2 immunofluorescence, active if greater than mean DMSO-treated control. The series is classed as cell-based. The procedure:
M17 human neuroblastoma cells are cultured in 1:1 ratio of EMEM and Ham's F12 with 1×NEM and 10% FBS. The culture media contains 1×PSN antibiotic and is exchanged every other day, and the cells are passed in log phase near confluence.
(§1) Cultures are incubated with normal horse serum (1:50; Vector Labs) for about 20 min, rinsed and then incubated with primary antibody, microtubule associated-protein 2 (anti-mouse MAP-2; 1:1000; Chemicon) for about 2 h at about RT. Following primary antibody, cultures are rinsed and incubated with fluorescein anti-mouse IgG (rat absorbed; 1:50; Vector Labs) for about 1 h. After fluorescein incubation, the cultures are rinsed and read in PBS on a fluorescent plate reader (excitation: 485 nm; emission: 530 nm). […] The response to test compound is reported as percent of DMSO-treated control.

The test system of series [5] is Primary Rat Hippocampal Cells. Kind of series: Neurite outgrowth assay in primary rat hippocampal cells. The series is classed as cell-based. The settings on record: MAP-2 immunofluorescence, active if greater than mean DMSO-treated control. The method, then: Hippocampal cells are dissected from the brains of embryonic day 18 rat pups and dissociated with trypsin (1 mg/mL) and trituration. Cells are seeded at 30,000 cells/well in 96-well plates filled with 100 μL MEM and 10% FBS. At 7 days in culture, cells are fixed with 4% paraformaldehyde and immuno-fluorescence is performed.
as §1

T1 sequence (P09483 31-630): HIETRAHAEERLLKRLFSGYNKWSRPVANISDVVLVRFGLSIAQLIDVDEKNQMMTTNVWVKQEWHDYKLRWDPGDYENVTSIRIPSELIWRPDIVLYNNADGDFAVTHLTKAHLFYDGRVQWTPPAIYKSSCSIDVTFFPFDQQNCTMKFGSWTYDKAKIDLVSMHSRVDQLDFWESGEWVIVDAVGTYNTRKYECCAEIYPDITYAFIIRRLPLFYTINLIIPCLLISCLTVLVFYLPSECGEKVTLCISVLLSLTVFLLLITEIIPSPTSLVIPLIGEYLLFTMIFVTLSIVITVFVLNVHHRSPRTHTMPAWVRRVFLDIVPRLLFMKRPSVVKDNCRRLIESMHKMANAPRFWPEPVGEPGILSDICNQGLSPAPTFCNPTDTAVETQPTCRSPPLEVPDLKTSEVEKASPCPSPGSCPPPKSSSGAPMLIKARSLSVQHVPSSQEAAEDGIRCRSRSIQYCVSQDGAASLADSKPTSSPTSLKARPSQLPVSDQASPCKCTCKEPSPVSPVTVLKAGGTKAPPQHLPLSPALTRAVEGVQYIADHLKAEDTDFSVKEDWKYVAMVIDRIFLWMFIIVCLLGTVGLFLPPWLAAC
T1 sequence (P12390 25-500): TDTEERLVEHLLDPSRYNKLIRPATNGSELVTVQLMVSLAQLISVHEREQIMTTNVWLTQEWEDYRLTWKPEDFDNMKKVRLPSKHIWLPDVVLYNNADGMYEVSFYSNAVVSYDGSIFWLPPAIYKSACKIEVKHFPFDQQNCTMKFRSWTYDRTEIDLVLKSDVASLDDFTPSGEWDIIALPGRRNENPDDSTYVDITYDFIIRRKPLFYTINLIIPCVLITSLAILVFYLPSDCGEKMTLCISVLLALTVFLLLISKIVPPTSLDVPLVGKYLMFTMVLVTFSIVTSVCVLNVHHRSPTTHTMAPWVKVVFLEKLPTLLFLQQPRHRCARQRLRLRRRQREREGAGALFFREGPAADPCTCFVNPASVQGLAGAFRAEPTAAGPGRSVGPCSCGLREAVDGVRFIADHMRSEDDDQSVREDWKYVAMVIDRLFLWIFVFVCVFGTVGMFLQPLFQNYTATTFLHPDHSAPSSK

`CCC(C)(C)C(=O)C(=O)N1CCCC1c1nnc([C@@H]2CCCN2C(=O)C(=O)C(C)(C)CC)o1` (some centres unmarked) [Compound 30] displayed a melting point of 123 to 124 °C. Moreover, the “Restoration of whisker movement on the paralyzed side” value in series [1] was “restored more rapidly”. As to `c1cncc(OCc2ncoc2[C@@H]2CCCN2)c1` [Compound 6], the half-inhibitory concentration (IC50) in series [2] is 801 nM. As for `CCC(C)(C)C(=O)C(=O)N1CCC[C@H]1C(=O)NNC(=O)[C@@H]1CCCN1C(=O)C(=O)C(C)(C)CC` [Compound 24], in series [3], the DRG result is “+ and −”. Consider `CCC(C)(C)C(=O)C(=O)N1CCC[C@H]1c1nc(COc2cccnc2)cs1` [Compound 19], for which the “M17 Cell Response” value in series [4] is 110% of DMSO-treated control.

`c1cncc(OCc2csc([C@@H]3CCCN3)n2)c1` [Compound 17] registered an IC50 in series [2] of 63.8 nM.

The molecule `O=C(C(=O)N1CCCC1c1nnc([C@@H]2CCCN2C(=O)C(=O)C2CCCCC2)o1)C1CCCCC1` (some centres unmarked) [Compound 49] displayed a melting point of 132 to 133 °C. Consider `CCC(C)(C)C(=O)C(=O)N1CCC[C@@H]1C(=O)NNC(=O)[C@H]1CCCN1C(=O)C(=O)C(C)(C)CC` [Compound 63], for which, in series [5], the “Rat Hippocampal Cell Response” value is recorded as 110% of DMSO-treated control.

For orientation: melting point means the temperature, or range, at which the solid turns liquid. Usually IC50 stands for the concentration that inhibits the measured activity by half.
